Legend:
[1] = test system: field EPSP (perforant path / dentate gyrus of the hippocampus); assay: In vivo physiological testing: field EPSP in dentate gyrus of hippocampus of anesthetized animals; settings: dose of 5 mg/kg, iv administration
Experimental: The physiological effects of the invention compound were tested in vivo in anesthetized animals according to the following procedures.
Animals are maintained under anesthesia by phenobarbital administered using a Hamilton syringe pump. Stimulating and recording electrodes are inserted into the perforant path and dentate gyrus of the hippocampus, respectively. Once electrodes are implanted, a stable baseline of evoked responses are elicited using single monophasic pulses (100 μs pulse duration) delivered at 3/min to the stimulating electrode. Field EPSPs are monitored until a stable baseline is achieved (about 20-30 min), after which a solution of test compound in HPCD is injected intraperitoneally and evoked field potentials are recorded. Evoked potentials are recorded for approximately 2 h following drug administration or until the amplitude of the field EPSP returns to baseline. In the latter instance, it is common that an iv administration is also carried out with an appropriate dose of the same test compound.

AMPA receptor = assay: AMPA mediated whole cell currents in cultured cortical neurons (patch clamp, glutamate-induced steady-state current); type: cell-based, Sprague-Dawley rats; settings: cultured rat cortical neurons, 500 μM glutamate, voltage-clamped at −80 mV; read-out: EC2x value (concentration at which the glutamate induced current is increased by 100%)
Experimental: Synaptic responses mediated by AMPA receptors are increased according to the method of the invention, using the compound described herein. […] The in vitro assay is described as follows. Cortical cells were prepared from day 18-19 embryonic Sprague-Dawley rats and recorded after 3 days in culture. The extracellular solution (ECS) contained (in mM): NaCl (145), KCl (5.4), HEPES (10), MgCl2 (0.8), CaCl2 (1.8), glucose (10), sucrose (30); pH. 7.4. In order to block the voltage-gated sodium currents, 40 nM TTX was added to the recording solution. […]
The whole-cell current was measured with patch-clamp amplifier (Axopatch 200B), filtered at 2 kHz, digitized at 5 kHz and recorded on a PC with pClamp 8. […] A baseline response for each cell was recorded using a 1 s pulse of 500 μM glutamate dissolved in ECS. Responses to test compound were then determined by application of a 10 s pulse of test compound followed by a 1 s pulse of the same concentration of test compound plus 500 μM glutamate and then 10 s of saline. This pulse sequence was repeated until a stable reading was obtained, or until sufficient data points were measured to allow extrapolation to a calculated maximum change.
The mean value of plateau current between 600 ms to 900 ms after application of glutamate or test compound plus glutamate was calculated and used as the parameter to measure the drug effect. […]

## O=C1c2cc3nnn(CCc4cccc(F)c4)c(=O)c3cc2OCN1C1CC1 [8-Cyclopropyl-3-[2-(3-fluorophenyl)ethyl]-7,8-dihydro-3H-[1,3]oxazino[6,5-g][1,2,3]-benzotriazine-4,9-dione]
[1]
  increase in the amplitude of the field EPSP: 10%
AMPA receptor
  EC2x (concentration that doubles the glutamate-induced current): 100 nM

Reference: patent US8173644B2, “3-substituted-[1,2,3]-benzotriazinone compound for enhancing glutamatergic synaptic responses” (Les Laboratoires Servier, priority 2007, dated 2012)
